{"source": "patent US10508120B2", "about": "“TYK2 inhibitors and uses thereof” (Nimbus Lakshmi, Inc., priority 2017, dated 2019)", "key": {"[1]": {"target": "Tyk2 kinase domain (DH1) (Homo sapiens (Human), UniProt P29597)", "sequence (P29597 897-1176)": "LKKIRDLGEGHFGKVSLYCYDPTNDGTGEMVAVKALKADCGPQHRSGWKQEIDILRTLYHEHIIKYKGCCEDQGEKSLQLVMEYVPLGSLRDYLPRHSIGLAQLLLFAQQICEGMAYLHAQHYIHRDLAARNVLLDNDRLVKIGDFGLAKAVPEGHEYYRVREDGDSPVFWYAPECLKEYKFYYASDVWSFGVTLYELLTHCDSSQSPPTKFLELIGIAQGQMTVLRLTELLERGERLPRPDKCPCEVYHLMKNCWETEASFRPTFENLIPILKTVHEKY", "test": "Tyk2 Radioactive Kinase Assay", "format": "biochemical", "conditions": "10 μM compound; 10 μM ATP; read-out: Tyk2 JH1% Inhibition @ 10 μM", "summary_of_the_method": "(§1)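 Single-point screen: 10 μM test compound, radioactive kinase read-out, percent inhibition reported for each kinase domain.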"}, "[2]": {"target": "JAK2 kinase domain (JH1) (Homo sapiens (Human), UniProt O60674)", "sequence (O60674 849-1124)": "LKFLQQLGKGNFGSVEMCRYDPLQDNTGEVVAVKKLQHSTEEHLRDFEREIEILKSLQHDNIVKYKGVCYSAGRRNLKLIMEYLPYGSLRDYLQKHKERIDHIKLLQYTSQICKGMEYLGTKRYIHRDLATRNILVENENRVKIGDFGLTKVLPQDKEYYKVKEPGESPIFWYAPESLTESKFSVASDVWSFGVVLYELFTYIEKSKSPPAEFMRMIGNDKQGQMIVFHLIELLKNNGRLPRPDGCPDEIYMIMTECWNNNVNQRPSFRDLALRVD", "test": "JAK2 Radioactive Kinase Assay", "format": "biochemical", "conditions": "10 μM compound; 10 μM ATP; read-out: JAK2 JH1% Inhibition @ 10 μM", "summary_of_the_method": "as §1"}, "[3]": {"target": "human TYK2 (JH2domain-pseudokinase) (Homo sapiens (Human), UniProt P29597)", "sequence (P29597 556-888)": "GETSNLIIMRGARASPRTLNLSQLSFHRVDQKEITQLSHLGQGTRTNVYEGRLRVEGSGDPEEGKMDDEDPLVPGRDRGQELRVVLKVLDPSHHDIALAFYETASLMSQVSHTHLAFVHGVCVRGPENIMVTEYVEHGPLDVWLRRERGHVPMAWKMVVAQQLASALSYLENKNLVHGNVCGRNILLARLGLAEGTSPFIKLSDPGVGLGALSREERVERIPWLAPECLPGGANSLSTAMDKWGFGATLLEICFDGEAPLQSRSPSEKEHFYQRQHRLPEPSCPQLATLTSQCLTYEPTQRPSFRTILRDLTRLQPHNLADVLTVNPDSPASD", "test": "TYK2 JH2 Domain Binding Assay (KINOMEscan)", "summary_of_the_method": "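Pseudokinase domain binding was measured by qPCR of tagged, bead-retained kinase after 1 h room-temperature competition, with 0.9% DMSO and compound up to 30,000 nM in 3-fold steps. Hill-equation Kd, duplicate.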"}}, "data": [{"smiles": "CNc1cc(Nc2cccn(-c3ccccc3F)c2=O)nc2c(C(=O)NC[C@H](C)CO)cnn12", "note": "[I-1077]", "values": [{"measurement": "inhibition at 10 µM", "setting": "[1]", "value": "< 50", "unit": "%"}, {"measurement": "inhibition at 10 µM", "setting": "[2]", "value": "< 50", "unit": "%"}, {"measurement": "Kd", "setting": "[3]", "value": "0.2 to 1", "unit": "nM"}]}, {"smiles": "CNc1cc(Nc2cccn(C(C)C)c2=O)nc2c(C(=O)N[C@H]3CCC[C@H](O)C3)cnn12", "note": "[I-1078]", "values": [{"measurement": "inhibition at 10 µM", "setting": "[1]", "value": "< 50", "unit": "%"}, {"measurement": "inhibition at 10 µM", "setting": "[2]", "value": "< 50", "unit": "%"}, {"measurement": "Kd", "setting": "[3]", "value": "< 0.2", "unit": "nM"}]}, {"smiles": "CNc1cc(Nc2cccn(C(C)C)c2=O)nc2c(C(=O)N[C@@H]3CCC[C@@H](O)C3)cnn12", "note": "[I-1079]", "values": [{"measurement": "inhibition at 10 µM", "setting": "[1]", "value": "< 50", "unit": "%"}, {"measurement": "inhibition at 10 µM", "setting": "[2]", "value": "< 50", "unit": "%"}, {"measurement": "Kd", "setting": "[3]", "value": "0.2 to 1", "unit": "nM"}]}, {"smiles": "CNc1cc(-c2cn(C3CC3)c3ncccc23)nc2c(C(=O)N[C@H]3CC[C@H]3O)cnn12", "note": "[I-1080, 5-(1-cyclopropyl-1H-pyrrolo[2,3-b]pyridin-3-yl)-N-((1S,2R)-2-hydroxycyclobutyl)-7-(methylamino)pyrazolo[1,5-a]pyrimidine-3-carboxamide]", "values": [{"measurement": "inhibition at 10 µM", "setting": "[1]", "value": "< 50", "unit": "%"}, {"measurement": "inhibition at 10 µM", "setting": "[2]", "value": "< 50", "unit": "%"}, {"measurement": "Kd", "setting": "[3]", "value": "< 0.2", "unit": "nM"}]}, {"smiles": "CNc1cc(-c2cn(C3CC3)c3ncccc23)nc2c(C(=O)N[C@@H]3CC[C@@H]3O)cnn12", "note": "[I-1081, 5-(1-cyclopropyl-1H-pyrrolo[2,3-b]pyridin-3-yl)-N-((1R,2S)-2-hydroxycyclobutyl)-7-(methylamino)pyrazolo[1,5-a]pyrimidine-3-carboxamide]", "values": [{"measurement": "inhibition at 10 µM", "setting": "[1]", "value": "< 50", "unit": "%"}, {"measurement": "inhibition at 10 µM", "setting": "[2]", "value": "< 50", "unit": "%"}, {"measurement": "Kd", "setting": "[3]", "value": "0.2 to 1", "unit": "nM"}]}, {"smiles": "CNc1cc(Nc2cccn([C@@H]3CCC[C@H](OC)C3)c2=O)nc2c(C(=O)N[C@H]3CC[C@@H]3OC)cnn12", "note": "[I-1083]", "values": [{"measurement": "inhibition at 10 µM", "setting": "[1]", "value": "< 50", "unit": "%"}, {"measurement": "inhibition at 10 µM", "setting": "[2]", "value": "< 50", "unit": "%"}, {"measurement": "Kd", "setting": "[3]", "value": "1 to 10", "unit": "nM"}]}, {"smiles": "CNc1cc(Nc2cccn([C@@H]3CCC[C@@H](OC)C3)c2=O)nc2c(C(=O)NCC3(CO)CC3)cnn12", "note": "[I-1087]", "values": [{"measurement": "inhibition at 10 µM", "setting": "[1]", "value": "< 50", "unit": "%"}, {"measurement": "inhibition at 10 µM", "setting": "[2]", "value": "< 50", "unit": "%"}, {"measurement": "Kd", "setting": "[3]", "value": "< 0.2", "unit": "nM"}]}, {"smiles": "CNc1cc(Nc2cccn([C@@H]3C[C@H]3F)c2=O)nc2c(C(=O)N[C@H]3CC[C@H]3O)cnn12", "note": "[I-1089]", "values": [{"measurement": "inhibition at 10 µM", "setting": "[1]", "value": "< 50", "unit": "%"}, {"measurement": "inhibition at 10 µM", "setting": "[2]", "value": "< 50", "unit": "%"}, {"measurement": "Kd", "setting": "[3]", "value": "< 0.2", "unit": "nM"}]}, {"smiles": "CNc1cc(Nc2cccn([C@@H]3C[C@H]3F)c2=O)nc2c(C(=O)N[C@@H]3CC[C@H]3O)cnn12", "note": "[I-1091]", "values": [{"measurement": "inhibition at 10 µM", "setting": "[1]", "value": "< 50", "unit": "%"}, {"measurement": "inhibition at 10 µM", "setting": "[2]", "value": "< 50", "unit": "%"}, {"measurement": "Kd", "setting": "[3]", "value": "< 0.2", "unit": "nM"}]}, {"smiles": "CNc1cc(Nc2cccn([C@H]3C[C@@H]3F)c2=O)nc2c(C(=O)N[C@@H]3CC[C@H]3O)cnn12", "note": "[I-1092]", "values": [{"measurement": "inhibition at 10 µM", "setting": "[1]", "value": "< 50", "unit": "%"}, {"measurement": "inhibition at 10 µM", "setting": "[2]", "value": "< 50", "unit": "%"}, {"measurement": "Kd", "setting": "[3]", "value": "0.2 to 1", "unit": "nM"}]}, {"smiles": "CNc1cc(Nc2cccn([C@@H]3CCC[C@@H]3O)c2=O)nc2c(C(=O)N[C@H]3CC[C@@H]3OC)cnn12", "note": "[I-1100]", "values": [{"measurement": "inhibition at 10 µM", "setting": "[1]", "value": "< 50", "unit": "%"}, {"measurement": "inhibition at 10 µM", "setting": "[2]", "value": "< 50", "unit": "%"}, {"measurement": "Kd", "setting": "[3]", "value": "0.2 to 1", "unit": "nM"}]}, {"smiles": "CNc1cc(Nc2cccn([C@H]3CC[C@H]3O)c2=O)nc2c(C(=O)NC3CC3)cnn12", "note": "[I-1103]", "values": [{"measurement": "inhibition at 10 µM", "setting": "[1]", "value": "< 50", "unit": "%"}, {"measurement": "inhibition at 10 µM", "setting": "[2]", "value": "< 50", "unit": "%"}, {"measurement": "Kd", "setting": "[3]", "value": "1 to 10", "unit": "nM"}]}, {"smiles": "CNc1cc(Nc2cccn([C@@H]3CC[C@@H]3O)c2=O)nc2c(C(=O)NC3CC3)cnn12", "note": "[I-1104]", "values": [{"measurement": "inhibition at 10 µM", "setting": "[1]", "value": "< 50", "unit": "%"}, {"measurement": "inhibition at 10 µM", "setting": "[2]", "value": "< 50", "unit": "%"}, {"measurement": "Kd", "setting": "[3]", "value": "< 0.2", "unit": "nM"}]}, {"smiles": "CNc1cc(Nc2cccn([C@H]3CC[C@](C)(OC)CC3)c2=O)nc2c(C(=O)N[C@@H]3CC[C@H]3OC)cnn12", "note": "[I-1106]", "values": [{"measurement": "inhibition at 10 µM", "setting": "[1]", "value": "< 50", "unit": "%"}, {"measurement": "inhibition at 10 µM", "setting": "[2]", "value": "< 50", "unit": "%"}, {"measurement": "Kd", "setting": "[3]", "value": "1 to 10", "unit": "nM"}]}, {"smiles": "CNc1cc(Nc2cccn([C@H]3CC[C@](C)(OC)CC3)c2=O)nc2c(C(=O)N[C@H]3CC[C@@H]3O)cnn12", "note": "[I-1108]", "values": [{"measurement": "inhibition at 10 µM", "setting": "[1]", "value": "< 50", "unit": "%"}, {"measurement": "inhibition at 10 µM", "setting": "[2]", "value": "< 50", "unit": "%"}, {"measurement": "Kd", "setting": "[3]", "value": "< 0.2", "unit": "nM"}]}, {"smiles": "CNc1cc(Nc2cccn([C@H]3CC[C@]4(CCCO4)CC3)c2=O)nc2c(C(=O)NC3CC3)cnn12", "note": "[I-1109]", "values": [{"measurement": "inhibition at 10 µM", "setting": "[1]", "value": "< 50", "unit": "%"}, {"measurement": "inhibition at 10 µM", "setting": "[2]", "value": "< 50", "unit": "%"}, {"measurement": "Kd", "setting": "[3]", "value": "< 0.2", "unit": "nM"}]}, {"smiles": "CNc1cc(Nc2cccn([C@@H]3CC[C@@H]3O)c2=O)nc2c(C(=O)N[C@@H]3C[C@@H]3F)cnn12", "note": "[I-1110]", "values": [{"measurement": "inhibition at 10 µM", "setting": "[1]", "value": "< 50", "unit": "%"}, {"measurement": "inhibition at 10 µM", "setting": "[2]", "value": "< 50", "unit": "%"}, {"measurement": "Kd", "setting": "[3]", "value": "< 0.2", "unit": "nM"}]}, {"smiles": "CNc1cc(-c2cn(C3CCOCC3)c3ncccc23)nc2c(C(=O)N[C@H]3CC[C@H]3O)cnn12", "note": "[I-1113]", "values": [{"measurement": "inhibition at 10 µM", "setting": "[1]", "value": "< 50", "unit": "%"}, {"measurement": "inhibition at 10 µM", "setting": "[2]", "value": "< 50", "unit": "%"}, {"measurement": "Kd", "setting": "[3]", "value": "< 0.2", "unit": "nM"}]}, {"smiles": "CNc1cc(-c2cn(C3CCOCC3)c3ncccc23)nc2c(C(=O)N[C@@H]3CC[C@@H]3O)cnn12", "note": "[I-1114]", "values": [{"measurement": "inhibition at 10 µM", "setting": "[1]", "value": "< 50", "unit": "%"}, {"measurement": "inhibition at 10 µM", "setting": "[2]", "value": "< 50", "unit": "%"}, {"measurement": "Kd", "setting": "[3]", "value": "0.2 to 1", "unit": "nM"}]}, {"smiles": "CNc1cc(Nc2cccc3ocnc23)nc2c(C(=O)N[C@H]3CC[C@@H]3OC)cnn12", "note": "[I-1115]", "values": [{"measurement": "inhibition at 10 µM", "setting": "[1]", "value": "< 50", "unit": "%"}, {"measurement": "inhibition at 10 µM", "setting": "[2]", "value": "< 50", "unit": "%"}, {"measurement": "Kd", "setting": "[3]", "value": "1 to 10", "unit": "nM"}]}, {"smiles": "CNc1cc(Nc2cccn(C3CCCCC3)c2=O)nc2c(C(=O)NC[C@@H](C)CO)cnn12", "note": "[I-1119]", "values": [{"measurement": "inhibition at 10 µM", "setting": "[1]", "value": "< 50", "unit": "%"}, {"measurement": "inhibition at 10 µM", "setting": "[2]", "value": "< 50", "unit": "%"}, {"measurement": "Kd", "setting": "[3]", "value": "< 0.2", "unit": "nM"}]}, {"smiles": "CNc1cc(Nc2cccn(C3CCCCC3)c2=O)nc2c(C(=O)NC[C@H](C)CO)cnn12", "note": "[I-1120]", "values": [{"measurement": "inhibition at 10 µM", "setting": "[1]", "value": "< 50", "unit": "%"}, {"measurement": "inhibition at 10 µM", "setting": "[2]", "value": "< 50", "unit": "%"}, {"measurement": "Kd", "setting": "[3]", "value": "0.2 to 1", "unit": "nM"}]}]}
